Here are results for one molecule from patent US20180354909A1, “SUBSTITUTED BENZIMIDAZOLIUM, PYRIDO-IMIDAZOLIUM, OR PYRAZINO-IMIDAZOLIUM COMPOUNDS AS CHEMOTHERAPEUTICS” (The Board of Regents of the University of Texas System, priority 2015, published 2018).

This assay has as its system ATF4. Kind of assay: ATF4 western blot in Mut6 cells. Type of assay: cell-based, mouse. Here is the method: Mut6 tumor cells and MEFs were treated by DMSO or 1 μM 12M11 for the indicated times. Cell lysate was prepared by RIPA buffer with phosphatase inhibitor (Thermo) and protease inhibitor (Roche). Antibodies are purchased from Santa Cruz (ATF4), Cell Signaling (pS6, S6, AMPK, and pAMPK), and Millipore (Gapdh).

In the case of `CCc1n(CC(=O)O[C@@H]2C[C@H](C)CC[C@H]2C(C)C)c2ccccc2[n+]1C.[Cl-]` [Compound 12M11], the ATF4 protein level result is reported as “activation”.
